Patent US20120214847A1, “2-[1-PHENYL-5-HYDROXY-4a-SUBSTITUTED-HEXAHYDROCYCLOPENTA[F]INDAZOL-5-YL]ETHYL PHENYL DERIVATIVES AS GLUCOCORTICOID RECEPTOR LIGANDS” (Merck Sharp & Dohme Corp., priority 2009, published 2012)

target: T1, glucocorticoid receptor (Homo sapiens, UniProt P04150); assay: Ligand binding assay (GRBind), 3H-dexamethasone displacement in HeLa cell lysate; conditions: 3H-DEX tracer
T1 construct: endogenous in cells; host or cells: HeLa (ATCC) cell lysate supernatant
T1 sequence (P04150 1-777): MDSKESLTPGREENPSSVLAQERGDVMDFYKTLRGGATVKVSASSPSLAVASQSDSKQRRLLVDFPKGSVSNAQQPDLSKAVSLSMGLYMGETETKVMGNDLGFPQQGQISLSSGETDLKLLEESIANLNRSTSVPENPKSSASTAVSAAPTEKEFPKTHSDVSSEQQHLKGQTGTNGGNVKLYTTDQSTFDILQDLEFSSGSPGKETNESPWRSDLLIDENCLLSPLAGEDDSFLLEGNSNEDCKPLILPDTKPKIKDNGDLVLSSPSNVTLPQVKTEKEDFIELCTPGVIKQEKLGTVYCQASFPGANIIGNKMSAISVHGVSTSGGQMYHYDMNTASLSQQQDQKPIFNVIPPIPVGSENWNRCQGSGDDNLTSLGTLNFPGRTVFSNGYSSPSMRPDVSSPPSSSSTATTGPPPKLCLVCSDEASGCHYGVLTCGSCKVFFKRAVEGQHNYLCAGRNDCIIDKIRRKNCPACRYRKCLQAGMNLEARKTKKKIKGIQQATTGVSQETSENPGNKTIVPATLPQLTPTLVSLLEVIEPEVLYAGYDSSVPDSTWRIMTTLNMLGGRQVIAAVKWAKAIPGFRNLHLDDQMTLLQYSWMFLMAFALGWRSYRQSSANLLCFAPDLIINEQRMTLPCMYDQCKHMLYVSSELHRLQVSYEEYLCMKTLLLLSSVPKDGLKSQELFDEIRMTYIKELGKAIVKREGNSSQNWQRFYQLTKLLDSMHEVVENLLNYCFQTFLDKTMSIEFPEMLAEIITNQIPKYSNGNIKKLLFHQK
Procedure, shortened: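 Cytosolic supernatant from HeLa cells in TEGM buffer (pH 7.2, with molybdate) was incubated overnight at 4 °C with 3H-dexamethasone (6 nM trace solution) and serially diluted compound, with 2% ethanol. Bound receptor was captured on hydroxylapatite, filtered and counted by scintillation. IC50s were calculated using dexamethasone as reference.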

| Structure (SMILES) | Ki |
| --- | --- |
| CC[C@]12Cc3cnn(-c4ccc(F)cc4)c3C=C1CC[C@@]2(O)CCc1cccc(F)c1CC(N)=O [Example 60, 2-(2-{2-[(4aS,5R)-4a-Ethyl-1-(4-fluorophenyl)-5-hydroxy-1,4,4a,5,6,7-hexahydrocyclopenta[f]indazol-5-yl]ethyl}-6-fluorophenyl)acetamide] | 2.33 nM |
| CC[C@]12Cc3cnn(-c4ccc(F)cc4)c3C=C1CC[C@@]2(O)CCc1ncccc1S(=O)(=O)C(C)C [Example 62, (4aS,5R)-4a-Ethyl-1-(4-fluorophenyl)-5-{2-[3-(propan-2-ylsulfonyl)pyridin-2-yl]ethyl}-1,4,4a,5,6,7-hexahydrocyclopenta[f]indazol-5-ol] | 4.06 nM |
| CC[C@]12Cc3cnn(-c4ccc(F)cc4)c3C=C1CC[C@@]2(O)CCc1nccc(OC)c1CC(N)=O [Example 64, 2-(2-{2-[(4aS,5R)-4a-Ethyl-1-(4-fluorophenyl)-5-hydroxy-1,4,4a,5,6,7-hexahydrocyclopenta[f]indazol-5-yl]ethyl}-4-methoxypyridin-3-yl)acetamide] | 11.5 nM |
| CC[C@]12Cc3cnn(-c4ccc(F)cc4)c3C=C1CC[C@@]2(O)CCc1nccc(OC)c1C(F)C(N)=O (stereo partly drawn) [Example 65, 2-(2-{2-[(4aS,5R)-4a-Ethyl-1-(4-fluorophenyl)-5-hydroxy-1,4,4a,5,6,7-hexahydrocyclopenta[f]indazol-5-yl]ethyl}-4-methoxypyridin-3-yl)-2-fluoroacetamide] | 9.2 nM |
| COc1ccnc(CC[C@]2(O)CCC3=Cc4c(cnn4-c4ccc(F)cc4)C[C@@]32C2CC2)c1C(F)C(N)=O (stereo partly drawn) [Example 66, 2-(2-{2-[(4aR,5R)-4a-Cyclopropyl-1-(4-fluorophenyl)-5-hydroxy-1,4,4a,5,6,7-hexahydrocyclopenta[f]indazol-5-yl]ethyl}-4-methoxypyridin-3-yl)-2-fluoroacetamide] | 1.82 nM |
| CC[C@]12Cc3cnn(-c4ccc(F)cc4)c3C=C1CC[C@@]2(O)CC(O)c1ccccn1 (stereo partly drawn) [Example 68, (4aS,5R)-4a-Ethyl-1-(4-fluorophenyl)-5-[2-hydroxy-2-(pyridin-2-yl)ethyl]-1,4,4a,5,6,7-hexahydrocyclopenta[f]indazol-5-ol] | 2.72 nM |
| CC[C@]12Cc3cnn(-c4ccc(F)cc4)c3C=C1CC[C@@]2(O)CC(O)c1ncccc1Cl (stereo partly drawn) [Example 70, (4aS,5R)-5-[2-(3-Chloropyridin-2-yl)-2-hydroxyethyl]-4a-ethyl-1-(4-fluorophenyl)-1,4,4a,5,6,7-hexahydrocyclopenta[f]indazol-5-ol] | 7.06 nM |
| CC[C@]12Cc3cnn(-c4ccc(F)cc4)c3C=C1CC[C@@]2(O)CC1OC(=O)c2ccccc21 (stereo partly drawn) [Example 71, 3-{[(4aS,5R)-4a-Ethyl-1-(4-fluorophenyl)-5-hydroxy-1,4,4a,5,6,7-hexahydrocyclopenta[f]indazol-5-yl]methyl}-2-benzofuran-1(3H)-one] | 2.97 nM |
| CC[C@]12Cc3cnn(-c4ccc(F)cc4)c3C=C1CC[C@@]2(O)CC(O)c1cc(C#N)ccn1 (stereo partly drawn) [Example 72, 2-{2-[(4aS,5R)-4a-Ethyl-1-(4-fluorophenyl)-5-hydroxy-1,4,4a,5,6,7-hexahydrocyclopenta[f]indazol-5-yl]-1-hydroxyethyl}pyridine-4-carbonitrile] | 6.25 nM |
| CC[C@]12Cc3cnn(-c4ccc(F)cc4)c3C=C1CC[C@@]2(O)CC(O)c1cncc(F)c1 (stereo partly drawn) [Example 73, (4aS,5R)-4a-Ethyl-1-(4-fluorophenyl)-5-[2-(5-fluoropyridin-3-yl)-2-hydroxyethyl]-1,4,4a,5,6,7-hexahydrocyclopenta[f]indazol-5-ol] | 5.67 nM |
| CC[C@]12Cc3cnn(-c4ccc(F)cc4)c3C=C1CC[C@@]2(O)CC(O)c1c(F)ccnc1Cl (stereo partly drawn) [Example 74, (4aS,5R)-5-[2-(2-Chloro-4-fluoropyridin-3-yl)-2-hydroxyethyl]-4a-ethyl-1-(4-fluorophenyl)-1,4,4a,5,6,7-hexahydrocyclopenta[f]indazol-5-ol] | 9.35 nM |
| CC[C@]12Cc3cnn(-c4ccccc4)c3C=C1CC[C@@]2(O)CC(O)c1cc(C#N)ccn1 (stereo partly drawn) [Example 75, 2-{2-[(4aS,5R)-4a-Ethyl-5-hydroxy-1-phenyl-1,4,4a,5,6,7-hexahydrocyclopenta[f]indazol-5-yl]-1-hydroxyethyl}pyridine-4-carbonitrile] | 2.97 nM |
| CC[C@]12Cc3cnn(-c4ccc(F)cc4)c3C=C1CC[C@@]2(O)CC(O)c1ncccc1F (stereo partly drawn) [Example 76, (4aS,5R)-4a-Ethyl-1-(4-fluorophenyl)-5-[2-(3-fluoropyridin-2-yl)-2-hydroxyethyl]-1,4,4a,5,6,7-hexahydrocyclopenta[f]indazol-5-ol] | 20.8 nM |
| CC[C@]12Cc3cnn(-c4ccc(F)cc4)c3C=C1CC[C@@]2(O)CC(O)c1ncccc1F (stereo partly drawn) [Example 77, (4aS,5R)-4a-Ethyl-1-(4-fluorophenyl)-5-[2-(3-fluoropyridin-2-yl)-2-hydroxyethyl]-1,4,4a,5,6,7-hexahydrocyclopenta[f]indazol-5-ol] | 4.39 nM |
| OC(C[C@]1(O)CCC2=Cc3c(cnn3-c3ccc(F)cc3)C[C@@]21C1CC1)c1ccccn1 (stereo partly drawn) [Example 78, (4aR,5R)-4a-Cyclopropyl-1-(4-fluorophenyl)-5-[2-hydroxy-2-(pyridin-2-yl)ethyl]-1,4,4a,5,6,7-hexahydrocyclopenta[f]indazol-5-ol] | 2.96 nM |

More lines, in order of falling Ki, values ahead:

| Ki | Structure (SMILES) |
| --- | --- |
| 2.24 nM | NC(=O)c1c(C(F)(F)F)ccnc1CC[C@]1(O)CCC2=Cc3c(cnn3-c3ccc(F)cc3)C[C@@]21C1CC1 [Example 55, 2-{2-[(4aR,5R)-4a-Cyclopropyl-1-(4-fluorophenyl)-5-hydroxy-1,4,4a,5,6,7-hexahydrocyclopenta[f]indaozol-5-yl]ethyl}-4-(trifluoromethyl)pyridine-3-carboxamide] |
| 2.08 nM | NC(=O)Cc1c(F)cccc1CC[C@]1(O)CCC2=Cc3c(cnn3-c3ccc(F)cc3)C[C@@]21C1CC1 [Example 61, 2-(2-{2-[(4aR,5R)-4a-Cyclopropyl-1-(4-fluorophenyl)-5-hydroxy-1,4,4a,5,6,7-hexahydrocyclopenta[f]indazol-5-yl]ethyl}-6-fluorophenyl)acetamide] |
| 1.69 nM | O=S(=O)(c1ccccc1CC[C@]1(O)CCC2=Cc3c(cnn3-c3ccc(F)cc3)C[C@@]21C1CC1)C1CC1 [Example 63, (4aR,5R)-4a-Cyclopropyl-5-{2-[2-(cyclopropylsulfonyl)phenyl]ethyl}-1-(4-fluorophenyl)-1,4,4a,5,6,7-hexahydrocyclopenta[f]indazol-5-ol] |
| 1.61 nM | NC(=O)Cc1ccccc1CC[C@]1(O)CCC2=Cc3c(cnn3-c3ccc(F)cc3)C[C@@]21C1CC1 [Example 56, 2-(2-{2-[(4aR,5S)-4a-Cyclopropyl-1-(4-fluorophenyl)-5-hydroxy-1,4,4a,5,6,7-hexahydrocyclopenta[f]indazol-5-yl]ethyl}phenyl)acetamide] |
| 1.5 nM | NC(=O)[C@H](F)c1c(F)cccc1CC[C@]1(O)CCC2=Cc3c(cnn3-c3ccc(F)cc3)C[C@@]21C1CC1 [Example 57, (2R)-2-(2-{2-[(4aR,5R)-4a-Cyclopropyl-1-(4-fluorophenyl)-5-hydroxy-1,4,4a,5,6,7-hexahydrocyclopenta[f]indazol-5-yl]ethyl}-6-fluorophenyl)-2-fluoroethanamide] |
| 1.36 nM | CCS(=O)(=O)c1ccccc1CC[C@]1(O)CCC2=Cc3c(cnn3-c3ccc(F)cc3)C[C@@]21C1CC1 [Example 59, (4aR,5R)-4a-Cyclopropyl-5-{2-[2-(ethylsulfonyl)phenyl]ethyl}-1-(4-fluorophenyl)-1,4,4a,5,6,7-hexahydrocyclopenta[f]indazol-5-ol] |
| 0.88 nM | CS(=O)(=O)c1ccccc1CC[C@]1(O)CCC2=Cc3c(cnn3-c3ccc(F)cc3)C[C@@]21C1CC1 [Example 58, (4aR,5R)-4a-Cyclopropyl-1-(4-fluorophenyl)-5-{2-[2-(methylsulfonyl)phenyl]ethyl}-1,4,4a,5,6,7-hexahydrocyclopenta[f]indazol-5-ol] |
